Columns and labels:
[1] = test system: Cord blood (CB) CD34+ cells; assay: TPO-mediated MK differentiation after VPA expansion of CB CD34+ cells; format: cell-based
Protocol: For this, 50,000 cryopreserved CB CD34+ cells were plated in serum-free (SF) media supplemented with stem cell factor (SCF), interleukin-3 (IL-3), Fms-like tyrosine kinase 3 (FLT-3), and TPO and allowed to expand with or without VPA (testing vs. control), as described in Example 1 above. After 7 days, instead of collecting, the cells were washed to remove VPA and cytokines, and re-plated in SF medium supplemented only with TPO. Approximately 50% more CD41+ MKs were detected in the VPA-expanded cultures than in cultures expanded with only cytokines (FIG. 3A). This corresponded to a final yield of ˜40 MKs generated from 1 CD34+ cell plated in the presence of VPA compared to […] CD41+ MKs generated by 1 CD34+ cell plated in the absence of VPA. q-PCR analyses confirmed upregulation of MK-specific genes (GATA1, PF4, and NFE2) in the cultures exposed to VPA before MK differentiation (FIG. 3B).

[2] = test system: Cord blood (CB) CD34+ cells; assay: Ex vivo expansion of CB CD34+ cells in serum-free culture with valproic acid; format: cell-based
Protocol: Cord blood (CB) CD34+ cells were obtained and separated into a testing group and a control group. The groups were subjected to the following cell culture protocol:
The CB CD34+ cells were primed with a cytokine cocktail and plated in serum-free (SF) culture. The cytokine cocktail included stem cell factor (SCF) at an amount of 150 ng/mL, interleukin-3 (IL-3) at an amount of 50 ng/mL, Fms-like tyrosine kinase 3 (FLT-3) at an amount of 100 ng/mL, and thrombopoietin (TPO) at an amount of 100 ng/mL.
1 mM valproic acid (VPA) was added to the SF culture (testing group only). No VPA was added to the control group.
The cells were allowed to expand in the SF culture and collected at Day 7. Total CD34+ cell expansion was around 200-fold.

**Q.** CCCC(CCC)C(=O)O [VPA, valproic acid] was tested. Which “more CD41+ MKs in VPA-expanded cultures than in cultures expanded with only cytokines” value ([1]; 7 days expansion with VPA, then SF medium with TPO only) did it give?
**A.** Approximately 50%

**Q.** And the “q-PCR expression of MK-specific genes (GATA1, PF4, and NFE2)” value ([1]; cultures exposed to VPA before MK differentiation)?
**A.** upregulation

**Q.** And the “final yield of MKs generated from 1 CD34+ cell plated” value ([1]; plated in the presence of VPA)?
**A.** 40 MKs generated from 1 CD34+ cell

**Q.** What about the “number of CD34+ cells in VPA-treated cultures relative to cells expanded in the absence of VPA” value ([2]; 1 mM VPA added day 1, SF culture with SCF, IL-3, FLT-3, TPO) of the same compound?
**A.** > 200 fold

**Q.** What about the “Total CD34+ cell expansion” value ([2]; 1 mM VPA, SF culture, collected at Day 7) of the same compound?
**A.** around 200 fold

**Q.** And the “CD41+ MK cells in expanded HSCs” value ([2]; VPA-treated SF culture)?
**A.** 8.9±2%

**Q.** What about the “glycophorin (GPA)+ erythroid cells in expanded HSCs” value ([2]; VPA-treated SF culture) of the same compound?
**A.** 17±5.4%

**Q.** And the “primitive CD34+/CD90+ cells in expanded HSCs” value ([2]; VPA-treated SF culture)?
**A.** 74.2±9.8%

From patent US11713447B2, “Production of megakaryoctye compositions and therapies for treatment of thrombocytopenia” (Icahn School of Medicine at Mount Sinai, priority 2016, dated 2023)
